Laboratory results taken from patent publication US12414960B2, “Analogues of oleuropein and oleacein and uses thereof” (Attica Sciences Ltd., priority 2020, dated 2025).

What was measured:
[1] = system: LNCaP prostate cancer cells; conditions: literature; cited from earlier work
pAKT (S473) = test: ELISA of pAKT (S473) in PANC-1 cells; assay type: cell-based, human; conditions: rIGF1, 5 μM, 24 hours
Method: ELISA assay was used to evaluate the effect of GS compounds on protein activity levels in PANC-1 cancer cells. PANC-1 cells were serum-starved overnight and then treated with rIGF1 (100 ng/mL) for 24 hours, with or without GS27 (5 μM). The levels of the following proteins were evaluated by ELISA assay: a) p70 S6 (T389) (cat no. 54164C, Cell Signaling); b) pAKT (S473), (cat no. 80895, Cell Signaling); c) pACLY (S455), (cat no. okag1672, Avivasysbio); d) pAMPK (T172) (cat no. 7959C, Cell Signaling) and e) p65/NFKB (S536), (cat no. 7173, Cell Signaling).
PANC-1 is a human pancreatic ductal adenocarcinoma cell line derived from the carcinoma of a person.
The molecular mechanism of action of GS27, a compound that has exerted potent anti-cancer activity in different cancer cell lines including pancreatic cancer cells, was investigated. Oleacein has been implicated to have anti-inflammatory and metabolic effects, thus the potential effects of GS27 in different metabolic and inflammatory pathways were evaluated. Specifically, the protein levels of p70 S6 (T389), pAKT (S473), pACLY (S455), pAMPK (T172) and p65/NFKB (S536) were evaluated by ELISA assay in PANC-1 pancreatic cancer cells treated with 5 μM GS27. GS27 reduced p70 S6 and AKT phosphorylation levels, while it increased AMPK phosphorylation.

[2] = system: AsPC-1 pancreatic cancer tumor; test: AsPC-1 xenograft mouse model; assay type: in vivo, NOD/SCID mice; conditions: 100 mg/kg i.p. daily for 5 days
Method: The effect of GS27 on pancreatic cancer tumor growth in mice was evaluated in a AsPC-1 xenograft mouse model.
Xenograft tumors were generated by injecting AsPC-1 pancreatic cancer cells (0.5×10^6) into the right flank of male NOD/SCID mice (n=5/group). All mice developed tumors in 10 days with size of approximately 100 mm3. For each experiment, mice were randomly distributed into equal groups (5 mice per group) that were untreated or treated by intraperitoneal injections daily for 5 days with 100 mg/kg GS27. Tumor volume (average, SD) and the weight of the animals were evaluated until 24 days post-treatment.

PANC-1 cancer cells = test: Cell Titer-Glo cell viability assay, PANC-1; assay type: cell-based, human; conditions: 5 μM, 24 hours; compared with SB204990 and BMS303141
Source text: (§1) The CellTiter-Glo® Luminescent Cell Viability Assay (Promega Corporation; Madison, WI) is a homogeneous method of determining the number of viable cells in culture based on quantitation of the ATP present, an indicator of metabolically active cells. The homogeneous assay procedure involves adding the single reagent (CellTiter-Glo® Reagent) directly to cells cultured in serum-supplemented medium. The homogeneous “add-mix-measure” format results in cell lysis and generation of a luminescent signal proportional to the amount of ATP present. The amount of ATP is directly proportional to the number of cells present in culture.
(§2) Cancer cells (3,000 cells/well) were harvested in a 96-well plate. Then, the cancer cells were treated with GS compounds and incubated for 24 hours. The MT Cell Viability Substrate, NanoLuc® Enzyme and cell culture medium was equilibrated to 37° C. The 2× RealTime-Glo™ reagent was prepared by diluting the MT Cell Viability Substrate and NanoLuc® Enzyme in 37° C. cell culture medium to a 2× concentration for each reagent. […] The cells were kept for ˜20 minutes in the cell culture incubator and then luminescence was measured by using a plate-reading luminometer. […]

[3] = system: MCF-10A non-tumorigenic mammary epithelial cells; test: Cell Glo luminescence cell growth assay, MCF-10A normal cells; assay type: cell-based, human; conditions: 10 μM, forty-eight hours post-treatment
Source text: as §1, §2
The effects of exemplary compounds on cancer cell lines and one non-tumorigenic cell line (control) were investigated using a high throughput screening assay. More specifically, the effects of the GS compounds on cell growth was evaluated by the XTT assay for cell lines HepG2, HeLa, MCF7 ER+, MDA-MB-231, and MKN-45, and by the Cell Glo luminescence assay for cell lines MIA PaCa-2, HCT-116, MCF-10A, and PANC-1. […]
The effect of GS27 on normal cell growth was evaluated using the MCF-10A cell line. […]
GS27, NDI-091143 and Nexletol (10 μM) were used to treat normal epithelial cells MCF-10A cells. […] Forty-eight hours post-treatment, the growth of MCF-10A cells was evaluated by CellTiter-Glo® Luminescent Cell Viability Assay, as discussed in Example 29.

Row | Compound | concentration found to reduce LNCaP prostate cancer cell growth [1] | AKT phosphorylation levels (pAKT (S473)) | weight of the mice [2] | inhibition of AsPC-1 pancreatic cancer tumor growth ([2]; until 24 days post-treatment) | suppression of PANC-1 cancer cell growth (PANC-1 cancer cells) | effect on MCF-10A normal cell growth [3]
1 | C/C=C(/C=O)[C@@H](CC=O)CC(=O)OCCc1ccc(O)cc1 [GS19, (3S,4E)-4-formyl-3-(2-oxoethyl)-4-hexenoic acid 2-(4-hydroxyphenyl)ethyl ester, reference compound] | 500 µM |  |  |  |  | 
2 | C/C=C(/C=O)[C@@H](CC=O)CC(=O)SCCc1ccccc1 [GS27, S-phenethyl (3S,4E)-4-formyl-3-(2-oxoethyl)hex-4-enethioate] |  | reduced | did not affect | 34% | best effect | did not have any effect
